From patent US11739070B2, “C5A receptor modulators” (IDORSIA PHARMACEUTICALS LTD, priority 2018, dated 2023)

Biological target: T1, C5AR1 (Homo sapiens, UniProt P21730)
T1 construct: host or cells: CHO-K1
T1 sequence (P21730 1-350): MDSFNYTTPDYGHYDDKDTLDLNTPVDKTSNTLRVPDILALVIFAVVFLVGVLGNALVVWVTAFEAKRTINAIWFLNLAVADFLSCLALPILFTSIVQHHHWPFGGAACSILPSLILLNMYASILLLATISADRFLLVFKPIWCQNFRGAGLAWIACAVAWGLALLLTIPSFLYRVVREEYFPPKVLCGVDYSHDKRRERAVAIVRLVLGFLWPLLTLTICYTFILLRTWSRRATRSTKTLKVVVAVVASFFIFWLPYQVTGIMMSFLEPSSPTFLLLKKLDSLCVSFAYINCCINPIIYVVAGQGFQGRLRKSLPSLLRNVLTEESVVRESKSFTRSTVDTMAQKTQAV
Assay: hC5a DISCO IC50 assay (PathHunter beta-arrestin, antagonist mode)
Type: cell-based
Details: CHO-K1 C5AR1 beta-arrestin cell line; antagonist vs 1-10 nM C5a agonist; geometric mean values; read-out: C5aR IC50
Description: II. Biological Assays In Vitro Assay hC5a DISCO IC50 Assay
5 μl Antagonist at 6-fold end concentration or DMSO control is added to assay medium and subsequently 5 μl 1-10 nM C5a agonist at 6 fold end concentration. Cells are centrifuged for 1 min at 1000 rpm and incubated for 1.5 hour in at 37° C. Plates are equilibrated at room temperature for several minutes before adding 12 μl/well Detection Reagent (PathHunter Detection Kit, DiscoverX, Cat #93-0001). Plates are centrifuged for 1 min at 1000 rpm and incubated for 45 minutes at RT before being measured on a Fluostar Optima, BMG Labtech. IC50 values are calculated from a serial dilution range of antagonist using inhouse software and given in nmol/l.
The calculated IC50 values may fluctuate depending on the daily cellular assay performance. Fluctuations of this kind are known to those skilled in the art. Average IC50 values from several measurements are given as geometric mean values.

| Structure (SMILES) | IC50 |
| --- | --- |
| COc1cccc2c1n(Cc1ccccc1C(F)(F)F)c(=O)n2[C@H]1CN(C(=O)OC(C)(C)C)C[C@@H]1C (relative stereo) [Example 196, (3R*,4S*)-3-[4-Methoxy-2-oxo-3-(2-trifluoromethyl-benzyl)-2,3-dihydro-benzoimidazol-1-yl]-4-methyl-pyrrolidine-1-carboxylic acid tert-butyl ester] | 139 nM |
| COc1cccc2c1n(Cc1ccccc1C(F)(F)F)c(=O)n2[C@H]1CN(c2c(C)cccc2F)C[C@@H]1C (relative stereo) [Example 198, 1-[(3R*,4S*)-1-(2-Fluoro-6-methyl-phenyl)-4-methyl-pyrrolidin-3-yl]-4-methoxy-3-(2-trifluoromethyl-benzyl)-1,3-dihydro-benzoimidazol-2-one] | 15 nM |
| COc1cccc2c1n(Cc1ccccc1C(F)(F)F)c(=O)n2[C@H]1CN(C(=O)OC(C)(C)C)C[C@H]1C (relative stereo) [Example 199, (3R*,4R*)-3-[4-Methoxy-2-oxo-3-(2-trifluoromethyl-benzyl)-2,3-dihydro-benzoimidazol-1-yl]-4-methyl-pyrrolidine-1-carboxylic acid tert-butyl ester] | 119 nM |
| COc1cccc2c1n(Cc1ccccc1C(F)(F)F)c(=O)n2[C@H]1CN(c2c(C)cccc2F)C[C@H]1C (relative stereo) [Example 200, 1-[(3R*,4R*)-1-(2-Fluoro-6-methyl-phenyl)-4-methyl-pyrrolidin-3-yl]-4-methoxy-3-(2-trifluoromethyl-benzyl)-1,3-dihydro-benzoimidazol-2-one] | 19 nM |
| COc1cccc2c1n(Cc1ccccc1C(F)(F)F)c(=O)n2C1CCN(C(=O)OC(C)(C)C)CC1 [Example 1, 4-[4-Methoxy-2-oxo-3-(2-trifluoromethyl-benzyl)-2,3-dihydro-benzoimidazol-1-yl]-piperidine-1-carboxylic acid tert-butyl ester] | 621 nM |
| COc1cccc2c1n(Cc1ccccc1C(F)(F)F)c(=O)n2C1CCN(c2c(C)cccc2C)CC1 [Example 2, 1-[1-(2,6-Dimethyl-phenyl)-piperidin-4-yl]-4-methoxy-3-(2-trifluoromethyl-benzyl)-1,3-dihydro-benzoimidazol-2-one] | 18 nM |
| [2H]c1ccc(OC)c2c1n(C1CCN(c3c(C)cccc3C)CC1)c(=O)n2Cc1ccccc1C(F)(F)F [Example 3, 1-(1-(2,6-dimethylphenyl)piperidin-4-yl)-4-methoxy-3-(2-(trifluoromethyl)benzyl)-1,3-dihydro-benzoimidazol-2-one-7-d] | 23 nM |
| COc1cccc2c1n(Cc1ccccc1C(F)(F)F)c(=O)n2C1CCN(c2ccccc2)CC1 [Example 4, 4-Methoxy-1-(1-phenyl-piperidin-4-yl)-3-(2-trifluoromethyl-benzyl)-1,3-dihydro-benzoimidazol-2-one] | 131 nM |
| COc1cccc2c1n(Cc1ccccc1C(F)(F)F)c(=O)n2C1CCN(Cc2ccc(Cl)cc2Cl)CC1 [Example 5, 1-[1-(2,4-Dichloro-benzyl)-piperidin-4-yl]-4-methoxy-3-(2-trifluoromethyl-benzyl)-1,3-dihydro-benzoimidazol-2-one] | 284 nM |
| COc1cccc2c1n(Cc1ccccc1C(F)(F)F)c(=O)n2[C@@H]1CCN(C(=O)OC(C)(C)C)C1 [Example 6, (R)-3-[4-Methoxy-2-oxo-3-(2-trifluoromethyl-benzyl)-2,3-dihydro-benzoimidazol-1-yl]-pyrrolidine-1-carboxylic acid tert-butyl ester] | 66 nM |
| COc1cccc2c1n(Cc1ccccc1C(F)(F)F)c(=O)n2[C@@H]1CCN(c2c(F)cccc2F)C1 [Example 7, 1-[(R)-1-(2,6-Difluoro-phenyl)-pyrrolidin-3-yl]-4-methoxy-3-(2-trifluoromethyl-benzyl)-1,3-dihydro-benzoimidazol-2-one] | 11 nM |
| COc1cccc2c1n(Cc1ccccc1C(F)(F)F)c(=O)n2C1CCN(c2c(F)cccc2F)CC1 [Example 9, 1-[1-(2,6-Difluoro-phenyl)-piperidin-4-yl]-4-methoxy-3-(2-trifluoromethyl-benzyl)-1,3-dihydro-benzoimidazol-2-one] | 32 nM |
